Test results from patent EP4471048A1, “PEPTIDE INHIBITORS OF INTERLEUKIN-23 RECEPTOR” (Zealand Pharma A/S, priority 2023, dated 2024).

Target: T1, human IL-23R (Homo sapiens, UniProt Q5VWK5)
T1 sequence (Q5VWK5 22-629): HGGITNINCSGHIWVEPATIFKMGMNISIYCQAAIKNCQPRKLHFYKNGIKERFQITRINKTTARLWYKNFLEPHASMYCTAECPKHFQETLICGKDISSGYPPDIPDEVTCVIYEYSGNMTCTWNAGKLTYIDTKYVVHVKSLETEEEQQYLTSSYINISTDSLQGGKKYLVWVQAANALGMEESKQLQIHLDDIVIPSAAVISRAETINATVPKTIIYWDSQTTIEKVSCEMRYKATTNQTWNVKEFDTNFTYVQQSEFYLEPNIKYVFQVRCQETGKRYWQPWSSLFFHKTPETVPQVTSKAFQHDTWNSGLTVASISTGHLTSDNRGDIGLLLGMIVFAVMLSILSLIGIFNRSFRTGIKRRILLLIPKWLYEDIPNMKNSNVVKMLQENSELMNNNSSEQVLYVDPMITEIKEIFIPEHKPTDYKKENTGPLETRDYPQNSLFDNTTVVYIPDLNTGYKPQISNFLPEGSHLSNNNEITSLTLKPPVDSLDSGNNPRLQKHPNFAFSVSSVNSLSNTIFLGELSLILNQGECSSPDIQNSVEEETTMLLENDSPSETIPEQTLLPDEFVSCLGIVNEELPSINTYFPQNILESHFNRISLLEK
Assay: biochemical
Conditions: for Emax: read-out: % displacement (hIL-23R NIuc)
From the text: The compound binding affinity for IL-23R was estimated by the ability of compounds to displace a fluorophore-labelled reference compound from the human IL-23R. The assay principle relies on Bioluminescence Resonance Energy Transfer (BRET) between a fluorophore-labelled reference compound binding to the IL-23R part of a fusion protein consisting of the IL-23R fused to a Nanoluc luciferase enzyme (Nanoluc). The Nanoluc is placed in the N-terminus in close proximity to the binding domain of the ligand. Upon close proximity between the fluorophore of the fluorophore-labelled compound and the Nanoluc of the fusion protein, bioluminescence energy generated from conversion of a Nanoluc substrate, is transferred to the fluorophore resulting in an increase in BRET. In presence of an unlabelled compound, the unlabelled compound displaces the fluorophore-labelled peptide from its binding site resulting in a decrease in BRET. The concentration for which half of the fluorophore-labelled peptide is displaced by the unlabelled compound depends on the affinity of the compound for the IL-23R, and is termed the IC50 concentration.
The plasmid also contained a gene to confer resistance for the antibiotic hygromycin. A cell line stably expressing the Nluc-IL23R fusion protein was generated by transfection of HEK293 cells with the expression plasmid and selected with hygromycin for 3 weeks in Growth medium consisting of DMEM w/ Glutamax-I containing, 10% V/V FBS, 1% V/V P/S, 1 mM Sodium Pyruvate, and 1X NEAA, and 0.3 mg/mL hygromycin. The remaining cells were propagated and considered a stable expressing Nluc-IL23R fusion protein pool clone.
Cells expressing the Nluc-IL23R fusion protein were expanded in Growth medium and membranes prepared by homogenization of a cell pellet from 18 T175 flasks (4 °C in subsequent steps). The cell pellet was lysed Tris 10 mM, 7.5, 1 mM EDTA and protease inhibitors (Complete, Roche) and homogenized using a 15 mL glass-dounce by 50 strokes. The homogenate was spun at spin @1500 rpm for 10 min, the supernatant transferred to SV-34 tubes and spun at 40000g for 20 min at 4 °C to pellet the crude membranes. The supernatant was then removed, the pellet resuspended in 5 mL buffer containing 50 mM HEPES pH 7.4, 5 mM EGTA, and 5 mM MgCl2, and homogenized. Aliquots of the resuspended and homogenized membranes containing the Nluc-IL23R fusion protein were stored at -80 °C until use.
The plate was sealed with light impermeable plate seals, and incubated on an orbital shaker 400 rpm for 2 hours at room temperature. To determine the BRET ratio, the plate seal was removed and 25 µL of the Nanoluc substrate (Promega N1572) diluted 1:500 was added to each well and incubated for 1-2 minutes on an orbital shaker at 400 rpm. […] The BRET ratio was calculated as the fluorescence from the TAMRA/nanoluc bioluminescence.
Compound potency (IC50) and maximal displacement (% displacement) were estimated by computer-aided curve fitting using a 4-parameter logistic (4PL) non-linear model. […]
In this application, the inventors provide the data as IC50 values.

| SMILES | IC50 [nM] | Emax [%] |
| --- | --- | --- |
| CNC(=O)[C@H](Cc1cccnc1)NC(=O)[C@H](CCN)NC(=O)[C@@H]1CCCNC(=O)CC[C@@H]2NC(=O)CC[C@H](NC(=O)[C@H](CCC(N)=O)NC(=O)[C@H](Cc3c[nH]c4ccccc34)NC(=O)[C@H]([C@@H](C)O)NC2=O)C(=O)N[C@@H](Cc2ccc(OCCN)cc2)C(=O)N[C@@H](Cc2ccc3ccccc3c2)C(=O)N[C@@](C)(CC(C)C)C(=O)N1 [Compound 40, E(1c)(6c)^†TWQE(6c)[Y(2-aminoethoxy)][2-Nal][2-Me-Leu][Orn](1c)[Dab][3-(3-Pyridyl)-Ala]-[NHMe]] | – | 100 |
| CNC(=O)[C@H](Cc1cccnc1)NC(=O)[C@H](CCN)NC(=O)[C@@H]1CCC(=O)NCCCC[C@H]2C(=O)N[C@@H]([C@@H](C)O)C(=O)N[C@@H](Cc3c[nH]c4ccccc34)C(=O)N[C@@H](CCC(N)=O)C(=O)N[C@@H](Cc3cn2nn3)C(=O)N[C@@H](Cc2ccc(OCCN)cc2)C(=O)N[C@@H](Cc2ccc3ccccc3c2)C(=O)N[C@@](C)(CC(C)C)C(=O)N1 [Compound 41, [(N3)-K](1c)(6g)^†TWQ[Pra](6g)[Y(2-aminoethoxy)][2-Nal][2-Me-Leu]E(1c)[Dab][3-(3-Pyridyl)-Ala]-[NHMe]] | 1.5 | 98 |
| CNC(=O)[C@H](Cc1cccnc1)NC(=O)[C@H](CCN)NC(=O)[C@@H]1CCC(=O)NCCCC[C@@H]2C(=O)N[C@@H]([C@@H](C)O)C(=O)N[C@@H](Cc3c[nH]c4ccccc34)C(=O)N[C@@H](CCC(N)=O)C(=O)N[C@@H](CCc3cn2nn3)C(=O)N[C@@H](Cc2ccc(OCCN)cc2)C(=O)N[C@@H](Cc2ccc3ccccc3c2)C(=O)N[C@@](C)(CC(C)C)C(=O)N1 [Compound 42, [{d}(N3)-K](1c)(6g)^†TWQ[Hpg](6g)[Y(2-aminoethoxy)][2-Nal][2-Me-Leu]E(1c)[Dab][3-(3-Pyridyl)-Ala]-[NHMe]] | 1.9 | 96 |
| COc1ccc(C[C@@H]2NC(=O)[C@@H]3CCC(=O)N[C@@H](CCCCNC(=O)CC[C@@H](C(=O)N[C@@H](CCCCNC(=O)c4ccccn4)C(N)=O)NC(=O)[C@](C)(CC(C)C)NC(=O)[C@H](Cc4ccc5ccccc5c4)NC2=O)C(=O)N[C@@H]([C@@H](C)O)C(=O)N[C@@H](C(C)C)C(=O)N[C@@H](Cc2c[nH]c4ccccc24)C(=O)N[C@@H](CCC(N)=O)C(=O)N3)cc1 [Compound 47, K(1c)(6c)^†TVWQE(6c)[Y(Me)][2-Nal][2-Me-Leu]E(1c)[K(piconilate)]-[NH2]] | 730 | 99 |
| COc1ccc(C[C@@H]2NC(=O)[C@@H]3CCC(=O)N[C@@H](CCCCNC(=O)CC[C@@H](C(=O)N[C@@H](CCCCNC(=O)Cc4ccccn4)C(N)=O)NC(=O)[C@](C)(CC(C)C)NC(=O)[C@H](Cc4ccc5ccccc5c4)NC2=O)C(=O)N[C@@H]([C@@H](C)O)C(=O)N[C@@H](C(C)C)C(=O)N[C@@H](Cc2c[nH]c4ccccc24)C(=O)N[C@@H](CCC(N)=O)C(=O)N3)cc1 [Compound 48, K(1c)(6c)^†TVWQE(6c)[Y(Me)][2-Nal][2-Me-Leu]E(1c)[K(2-pyridylacetyl)]-[NH2]] | 290 | 101 |
| COc1ccc(C[C@@H]2NC(=O)[C@@H]3CCC(=O)N[C@@H](CCCCNC(=O)CC[C@@H](C(=O)N[C@@H](CCCCNC(=O)CCc4ccccn4)C(N)=O)NC(=O)[C@](C)(CC(C)C)NC(=O)[C@H](Cc4ccc5ccccc5c4)NC2=O)C(=O)N[C@@H]([C@@H](C)O)C(=O)N[C@@H](C(C)C)C(=O)N[C@@H](Cc2c[nH]c4ccccc24)C(=O)N[C@@H](CCC(N)=O)C(=O)N3)cc1 [Compound 49, K(1c)(6c)^†TVWQE(6c)[Y(Me)][2-Nal][2-Me-Leu]E(1c)[K(2-pyridylpropionyl)]-[NH2]] | 820 | 96 |
| COc1ccc(C[C@@H]2NC(=O)[C@@H]3CCC(=O)N[C@@H](CCCCNC(=O)CC[C@@H](C(=O)N[C@@H](CCCCNC(=O)Cc4cccnc4)C(N)=O)NC(=O)[C@](C)(CC(C)C)NC(=O)[C@H](Cc4ccc5ccccc5c4)NC2=O)C(=O)N[C@@H]([C@@H](C)O)C(=O)N[C@@H](C(C)C)C(=O)N[C@@H](Cc2c[nH]c4ccccc24)C(=O)N[C@@H](CCC(N)=O)C(=O)N3)cc1 [Compound 51, K(1c)(6c)^†TVWQE(6c)[Y(Me)][2-Nal][2-Me-Leu]E(1c)[K(3-pyridylacetyl)]-[NH2]] | 300 | 102 |

Continued, values first:

| IC50 [nM] | Emax [%] | SMILES |
| --- | --- | --- |
| 0.76 | 102 | CCCCc1ccc(C[C@@H]2NC(=O)[C@@H]3CCC(=O)N[C@@H](CCCCNC(=O)CC[C@@H](C(=O)N[C@@H](CCN)C(=O)N[C@@H](Cc4cccnc4)C(=O)NC)NC(=O)[C@](C)(CC(C)C)NC(=O)[C@H](Cc4ccc5ccccc5c4)NC2=O)C(=O)N[C@@H]([C@@H](C)CC)C(=O)N[C@@H](C(C)C)C(=O)N[C@@H](Cc2c[nH]c4ccccc24)C(=O)N[C@@H](CCC(N)=O)C(=O)N3)cc1 [Compound 33, K(1c)(6c)^†IVWQE(6c)[F(4-Bu)][2-Nal][2-Me-Leu]E(1c)[Dab][3-(3-Pyridyl)-Ala]-[NHMe]] |
| 0.62 | 100 | CC[C@H](C)[C@@H]1NC(=O)[C@@H]2CCCCNC(=O)CC[C@@H](C(=O)N[C@@H](CCN)C(=O)N[C@@H](Cc3cccnc3)C(=O)NC)NC(=O)[C@](C)(CC(C)C)NC(=O)[C@H](Cc3ccc4ccccc4c3)NC(=O)[C@H](Cc3ccc(OCc4ccccc4)cc3)NC(=O)[C@H](CCC(=O)N2)NC(=O)[C@H](CCC(N)=O)NC(=O)[C@H](Cc2c[nH]c3ccccc23)NC(=O)[C@H](C(C)C)NC1=O [Compound 34, K(1c)(6c)^†IVWQE(6c)[Y(Bn)][2-Nal][2-Me-Leu]E(1c)[Dab][3-(3-Pyridyl)-Ala]-[NHMe]] |
| 0.11 | 98 | CC[C@H](C)[C@@H]1NC(=O)[C@@H]2CCCCNC(=O)CC[C@@H](C(=O)N[C@@H](CCN)C(=O)N[C@@H](Cc3cccnc3)C(=O)NC)NC(=O)[C@](C)(CC(C)C)NC(=O)[C@H](Cc3ccc4ccccc4c3)NC(=O)[C@H](Cc3ccc(OC)cc3)NC(=O)[C@H](CCC(=O)N2)NC(=O)[C@H](CCC(N)=O)NC(=O)[C@H](Cc2c[nH]c3ccccc23)NC(=O)[C@H](C(C)C)NC1=O [Compound 35, K(1c)(6c)^†IVWQE(6c)[Y(Me)][2-Nal][2-Me-Leu]E(1c)[Dab][3-(3-Pyridyl)-Ala]-[NHMe]] |
| 1.4 | 99 | CNC(=O)[C@H](Cc1cccnc1)NC(=O)[C@H](CCN)NC(=O)[C@@H]1CCC(=O)NCC[C@@H]2NC(=O)CC[C@H](NC(=O)[C@H](CCC(N)=O)NC(=O)[C@H](Cc3c[nH]c4ccccc34)NC(=O)[C@H]([C@@H](C)O)NC2=O)C(=O)N[C@@H](Cc2ccc(OCCN)cc2)C(=O)N[C@@H](Cc2ccc3ccccc3c2)C(=O)N[C@@](C)(CC(C)C)C(=O)N1 [Compound 37, [Dab](1c)(6c)^†TWQE(6c)[Y(2-aminoethoxy)][2-Nal][2-Me-Leu]E(1c)[Dab][3-(3-Pyridyl)-Ala]-[NHMe]] |
| 1.5 | 101 | CNC(=O)[C@H](Cc1cccnc1)NC(=O)[C@H](CCN)NC(=O)[C@@H]1CCC(=O)NCCCC[C@@H]2NC(=O)CCC[C@H](NC(=O)[C@H](CCC(N)=O)NC(=O)[C@H](Cc3c[nH]c4ccccc34)NC(=O)[C@H]([C@@H](C)O)NC2=O)C(=O)N[C@@H](Cc2ccc(OCCN)cc2)C(=O)N[C@@H](Cc2ccc3ccccc3c2)C(=O)N[C@@](C)(CC(C)C)C(=O)N1 [Compound 38, K(1c)(6c)^†TWQ[hGlu](6c)[Y(2-aminoethoxy)][2-Nal][2-Me-Leu]E(1c)[Dab][3-(3-Pyridyl)-Ala]-[NHMe]] |
